Source: PMC6844396, “Design, synthesis and biological evaluation of novel 1H-1,2,4-triazole, benzothiazole and indazole-based derivatives as potent FGFR1 inhibitors viafragment-based virtual screening” (Journal of Enzyme Inhibition and Medicinal Chemistry, 2019)

What was measured:
[1] = target: FGFR1 (Homo sapiens, UniProt P11362); test: ELISA kinase assay, FGFR1; type: biochemical; conditions: ELISA; average values from two separate experiments
Procedure: Elisa kinase assay. The effects of the indicated compounds on the activities of receptor tyrosine kinases were determined using enzyme-linked immunosorbent assays (ELISAs) with purified recombinant proteins. Briefly, 20 μg/mL poly (Glu,Tyr)4:1 (Sigma, St Louis, MO, USA) was pre-coated in 96-well plates as a substrate. A 50 μL aliquot of 10 μmol/L ATP solution diluted in kinase reaction buffer (50 mmol/L HEPES [pH 7.4], 50 mmol/L MgCl2, 0.5 mmol/L MnCl2, 0.2 mmol/L Na3VO4, and 1 mmol/L DTT) was added to each well; 1 μL of different compounds with indicated concentration diluted in 1% DMSO (v/v) (Sigma, St Louis, MO, USA) were then added to each reaction well. DMSO (1%, v/v) was used as the negative control. The kinase reaction was initiated by the addition of purified tyrosine kinase proteins (FGFR1, FGFR2, FGFR3, FGFR4, ALK, Bcr-Abl, EPH-A2, Flt-1, RET, c-Src, IGF1R, c-Met, EGFR, ErbB2) diluted in 49 μL of kinase reaction buffer solution. After incubation for 60 min at 37 °C, the plate was washed three times with phosphate-buffered saline (PBS) containing 0.1% Tween 20 (T-PBS). Anti-phosphotyrosine (PY99) antibody (100 μL; 1:500, diluted in 5 mg/mL BSA T-PBS) was then added. After a 30 min incubation at 37 °C, the plate was washed three times, and 100 μL horseradish peroxidase-conjugated goat anti-mouse IgG (1:2000, diluted in 5 mg/mL BSA T-PBS) was added. The plate was then incubated at 37 °C for 30 min and washed 3 times. A 100 μL aliquot of a solution containing 0.03% H2O2 and 2 mg/mL o-phenylenediamine in 0.1 mol/l citrate buffer (pH 5.5) was added. The reaction was terminated by the addition of 50 μL of 2 mol/l H2SO4 as the colour changed, and the plate was analysed using a multi-well spectrophotometer (SpectraMAX 190, Molecular Devices, Sunnyvale, CA, USA) at 490 nm. The inhibition rate (%) was calculated using the following equation: [1-(A490/A490 control)] × 100%. The IC50 values were calculated from the inhibition curves in two separate experiments.

[2] = tested on: SNU-16 cell; test: Cell proliferation assay (CCK-8 or MTT), SNU-16; type: cell-based, Human; conditions: for IC50: SNU-16 is FGFR2-amplified cell type, 72 h
Procedure: Human gastric cancer cell line SNU-16 was purchased from American Type Culture Collection (ATCC, Manssas, VA, USA). All the cell lines were routinely maintained in complete medium according to the suppliers’ recommendations.
Cells were seeded in 96-well tissue culture plates. On the day when seeding, the cells were exposed to various concentrations of compounds and further cultured for 72 h at 37 °C. Finally, cell proliferation was determined using Cell Counting Kit (CCK-8) or the thiazolyl blue tetrazolium bromide (MTT, from Sigma-Aldrich, St. Louis, MO, USA) assay. The IC50 values were calculated by concentration–response curve fitting using a SoftMax pro-based four-parameter method.

Sequence of FGFR1 (P11362 22-822): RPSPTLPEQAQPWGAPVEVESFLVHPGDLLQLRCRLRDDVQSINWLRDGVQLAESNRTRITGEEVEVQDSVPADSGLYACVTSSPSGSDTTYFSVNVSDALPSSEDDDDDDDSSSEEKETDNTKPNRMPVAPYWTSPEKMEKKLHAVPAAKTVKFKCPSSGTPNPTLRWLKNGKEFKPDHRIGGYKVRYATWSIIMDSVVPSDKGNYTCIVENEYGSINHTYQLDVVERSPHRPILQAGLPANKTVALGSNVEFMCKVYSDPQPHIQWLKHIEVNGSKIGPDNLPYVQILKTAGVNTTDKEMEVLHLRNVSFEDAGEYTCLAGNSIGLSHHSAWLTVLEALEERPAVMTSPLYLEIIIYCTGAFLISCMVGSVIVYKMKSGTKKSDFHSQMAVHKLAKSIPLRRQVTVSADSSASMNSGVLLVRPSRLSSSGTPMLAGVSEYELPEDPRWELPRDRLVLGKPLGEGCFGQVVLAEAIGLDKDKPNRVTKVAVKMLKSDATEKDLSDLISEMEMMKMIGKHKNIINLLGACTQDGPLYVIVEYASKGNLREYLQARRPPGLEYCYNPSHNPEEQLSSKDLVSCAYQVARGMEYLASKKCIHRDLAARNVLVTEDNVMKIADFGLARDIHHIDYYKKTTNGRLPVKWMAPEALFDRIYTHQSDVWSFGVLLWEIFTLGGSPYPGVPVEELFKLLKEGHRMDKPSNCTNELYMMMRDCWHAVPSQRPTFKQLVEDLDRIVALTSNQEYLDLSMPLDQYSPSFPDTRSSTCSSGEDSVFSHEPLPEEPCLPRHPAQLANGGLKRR

Compound	IC50 [1]	IC50 ([2]; Homo sapiens, Table 1)	IC50 ([2]; Homo sapiens, Table 2)	melting point	IC50 ([2]; Homo sapiens, Table 3)	enhancement of the cellular inhibition ([2]; 9o vs 9d, SNU-16)	IC50 ([2]; Table 1)
CCN1CCN(c2ccc(C(=O)Nc3n[nH]c4cc(-c5cccc(OC)c5)ccc34)cc2)CC1 [9d, 4–(4-ethylpiperazin-1-yl)-N-(6–(3-methoxyphenyl)-1H-indazol-3-yl)benzamide]	15 nM	786 nM	–	–	–	–	–
CCN1CCN(c2ccc(C(=O)Nc3n[nH]c4cc(-c5cccc(OC(C)C)c5)ccc34)cc2)CC1 [9f, 4–(4-ethylpiperazin-1-yl)-N-(6–(3-isopropoxyphenyl)-1H-indazol-3-yl)benzamide]	9.8 nM	–	1500 nM	227.9 to 231.7 °C	–	–	–
CCC(C)Oc1cccc(-c2ccc3c(NC(=O)c4ccc(N5CCN(CC)CC5)cc4)n[nH]c3c2)c1 (stereo not drawn) [9g, N-(6–(3-(sec-butoxy)phenyl)-1H-indazol-3-yl)-4–(4-ethylpiperazin-1-yl)benzamide]	> 1000 nM	–	> 5000 nM	–	–	–	–
CCN1CCN(c2ccc(C(=O)Nc3n[nH]c4cc(-c5ccc(C#N)cc5)ccc34)cc2)CC1 [9s, N-(6–(4-cyanophenyl)-1H-indazol-3-yl)-4–(4-ethylpiperazin-1-yl)benzamide]	> 1000 nM	–	> 5000 nM	226.4 to 230 °C	–	–	–
COc1cc(F)cc(-c2ccc3c(NC(=O)c4ccc(N5CCCN(C)CC5)cc4)n[nH]c3c2)c1 [9w, N-(6–(3-fluoro-5-methoxyphenyl)-1H-indazol-3-yl)-4–(4-methyl-1,4-diazepan-1-yl)benzamide]	3.3 nM	–	–	230.4 to 234.6 °C	557 nM	–	–
CCN1CCN(c2ccc(C(=O)Nc3n[nH]c4cc(-c5ccc(C)c(OC)c5)ccc34)cc2)CC1 [9i, 4–(4-ethylpiperazin-1-yl)-N-(6–(3-methoxy-4-methylphenyl)-1H-indazol-3-yl) benzamide]	> 1000 nM	–	> 5000 nM	227.3 to 231.2 °C	–	–	–
CCN1CCN(c2ccc(C(=O)Nc3n[nH]c4cc(-c5cc(F)cc(OC)c5)ccc34)cc2)CC1 [9o, 4–(4-ethylpiperazin-1-yl)-N-(6–(3-fluoro-5-methoxyphenyl)-1H-indazol-3-yl)benzamide]	5.5 nM	–	572 nM	225.5 to 227 °C	–	1.4 fold	–
COc1cccc(-c2ccc3c(NC(=O)c4ccc(N5CCN(C)CC5)cc4)n[nH]c3c2)c1 [9c, N-(6–(3-methoxyphenyl)-1H-indazol-3-yl)-4–(4-methylpiperazin-1-yl)benzamide]	28.2 nM	843 nM	–	224.8 to 227.4 °C	–	–	–
COc1cc(CCc2nc(NC(=O)c3ccc(N4CCN(C)CC4)cc3)n[nH]2)cc(OC)c1 [18c, N-(5–(3,5-dimethoxyphenethyl)-1H-1,2,4-triazol-3-yl)-4–(4-methylpiperazin-1-yl)benzamide]	> 1000 nM	> 5000 nM	–	220.9 to 223.3 °C	–	–	–
COc1cccc(-c2ccc3nc(NC(=O)c4ccc(N5CCN(C)CC5)cc4)sc3c2)c1 [12a, N-(6–(3-methoxyphenyl)benzo[d]thiazol-2-yl)-4–(4-methylpiperazin-1-yl) benzamide]	> 1000 nM	> 5000 nM	–	230.5 to 233.2 °C	–	–	–
COc1cc(F)cc(-c2ccc3c(NC(=O)c4ccc(N5C[C@@H](C)N[C@@H](C)C5)cc4)n[nH]c3c2)c1 [9v, 4-((3R,5S)-3,5-dimethylpiperazin-1-yl)-N-(6–(3-fluoro-5-methoxyphenyl)-1H-indazol-3-yl)benzamide]	13.2 nM	–	–	229.6 to 233.4 °C	437 nM	–	–
CCN1CCN(c2ccc(C(=O)Nc3n[nH]c4cc(-c5ccc(C(F)(F)F)cc5Cl)ccc34)cc2)CC1 [9p, N-(6–(2-chloro-4-(trifluoromethyl)phenyl)-1H-indazol-3-yl)-4–(4-ethylpiperazin-1-yl)benzamide]	> 1000 nM	–	> 5000 nM	227.9 to 232 °C	–	–	–
CCN1CCN(c2ccc(C(=O)Nc3n[nH]c4cc(-c5cccc(C(=O)OC)c5)ccc34)cc2)CC1 [9h, methyl 3–(3-(4–(4-ethylpiperazin-1-yl)benzamido)-1H-indazol-6-yl)benzoate]	77.7 nM	–	757 nM	228.7 to 233.4 °C	–	–	–
CCN1CCN(c2ccc(C(=O)Nc3n[nH]c4cc(-c5cccc(Cl)c5Cl)ccc34)cc2)CC1 [9m, N-(6–(2,3-dichlorophenyl)-1H-indazol-3-yl)-4–(4-ethylpiperazin-1-yl)benzamide]	44.8 nM	–	1180 nM	220.1 to 222.4 °C	–	–	–
COc1cc(-c2ccc3nc(NC(=O)c4ccc(N5CCN(C)CC5)cc4)sc3c2)cc(OC)c1OC [12c, 4–(4-methylpiperazin-1-yl)-N-(6–(3,4,5-trimethoxyphenyl)benzo[d]thiazol-2-yl)benzamide]	> 1000 nM	> 5000 nM	–	236.4 to 238.3 °C	–	–	–
N-(5–(3-methoxyphenethyl)-1H-1,2,4-triazol-3-yl)-4–(4-methylpiperazin-1-yl) benzamide [18b]	> 1000 nM	–	–	–	–	–	> 5000 nM
COc1cc(OC)cc(-c2ccc3nc(NC(=O)c4ccc(N5CCN(C)CC5)cc4)sc3c2)c1 [12b, N-(6–(3,5-dimethoxyphenyl)benzo[d]thiazol-2-yl)-4–(4-methylpiperazin-1-yl) benzamide]	> 1000 nM	> 5000 nM	–	234.6 to 238.2 °C	–	–	–
COc1cccc(-c2ccc3nc(NC(=O)c4ccc(N5CCN(C)CC5)cc4)sc3c2)c1F [12d, N-(6–(2-fluoro-3-methoxyphenyl)benzo[d]thiazol-2-yl)-4–(4-methylpiperazin-1-yl)benzamide]	> 1000 nM	> 5000 nM	–	232.5 to 235.2 °C	–	–	–
CCN1CCN(c2ccc(C(=O)Nc3n[nH]c4cc(-c5ccccc5OC(F)(F)F)ccc34)cc2)CC1 [9r, 4–(4-ethylpiperazin-1-yl)-N-(6–(2-(trifluoromethoxy)phenyl)-1H-indazol-3-yl)benzamide]	> 1000 nM	–	> 5000 nM	230.9 to 233.5 °C	–	–	–
CCN1CCN(c2ccc(C(=O)Nc3n[nH]c4cc(-c5cc(Cl)ccc5Cl)ccc34)cc2)CC1 [9l, N-(6–(2,5-dichlorophenyl)-1H-indazol-3-yl)-4–(4-ethylpiperazin-1-yl)benzamide]	50.6 nM	–	780 nM	231.5 to 234.6 °C	–	–	–
CN1CCN(c2ccc(C(=O)Nc3n[nH]c(CCc4ccccc4)n3)cc2)CC1 [18a, 4–(4-methylpiperazin-1-yl)-N-(5-phenethyl-1H-1,2,4-triazol-3-yl)benzamide]	> 1000 nM	> 5000 nM	–	218.1 to 222.5 °C	–	–	–
COc1cc(F)cc(-c2ccc3c(NC(=O)c4ccc(CN5CCN(C)CC5)cc4)n[nH]c3c2)c1 [9x, N-(6–(3-fluoro-5-methoxyphenyl)-1H-indazol-3-yl)-4-((4-methylpiperazin-1-yl)methyl)benzamide]	> 1000 nM	–	–	240.3 to 242.5 °C	> 5000 nM	–	–
CCN1CCN(c2ccc(C(=O)Nc3n[nH]c4cc(-c5ccc(Cl)c(Cl)c5)ccc34)cc2)CC1 [9n, N-(6–(3,4-dichlorophenyl)-1H-indazol-3-yl)-4–(4-ethylpiperazin-1-yl)benzamide]	> 1000 nM	–	> 5000 nM	224.9 to 228 °C	–	–	–
COc1cc(OC)cc(-c2ccc3c(NC(=O)c4ccc(N5C[C@@H](C)N[C@@H](C)C5)cc4)n[nH]c3c2)c1 [9a, N-(6–(3,5-dimethoxyphenyl)-1H-indazol-3-yl)-4-((3R,5S)-3,5-dimethylpiperazin-1-yl)benzamide]	30.6 nM	1200 nM	–	–	–	–	–
CCN1CCN(c2ccc(C(=O)Nc3n[nH]c4cc(-c5cc(C(F)(F)F)cc(C(F)(F)F)c5)ccc34)cc2)CC1 [9j, N-(6–(3,5-bis(trifluoromethyl)phenyl)-1H-indazol-3-yl)-4–(4-ethylpiperazin-1-yl)benzamide]	> 1000 nM	–	> 5000 nM	–	–	–	–
AZD4547 [reference compound]	–	–	–	–	–	–	6.1 nM
